Data from patent publication US20120122928A1 (priority 2010, published 2012).
Marks after values point to notes of the source that are not given here.

Assays:
[1] = LC-MS determination in the acidic range, pH 2.7, 0.1% aqueous formic acid and acetonitrile
Phytophthora infestans = type: in vivo; details: young tomato plants sprayed, active ingredient concentration of 100 (unit not given); inoculated 1 day after treatment; evaluation 7 days after inoculation; 100% = no infection
Plasmopara viticola = assay: Plasmopara test (grapevine) / protective; type: in vivo; details: young grapevine plants sprayed, active ingredient concentration 10 ppm; evaluation 6 days after inoculation; 100% = no infection
Method: Plasmopara Test (Grapevine)/Protective
To produce an appropriate active ingredient formulation, 1 part by weight of active ingredient is mixed with the specified amounts of solvent and emulsifier, and the concentrate is diluted with water to the desired concentration.
To test for protective efficacy, young plants are sprayed with the active ingredient formulation at the stated application rate. After the spray coating has dried on, the plants are inoculated with an aqueous spore suspension of Plasmopara viticola and then remain in an incubation cabin at approx. 20° C. and 100% relative air humidity for 1 day. Subsequently, the plants are placed in a greenhouse at approx. 21° C. and approx. 90% air humidity for 4 days. The plants are then moistened and placed in an incubation cabin for 1 day.
Evaluation follows 6 days after the inoculation. 0% means an efficacy which corresponds to that of the control, whereas an efficacy of 100% means that no infection is observed.
In this test, the following inventive compounds show, at an active ingredient concentration of 10 ppm, an efficacy of 70% or more: […]

SMILES | Log P [a] [1] | % eff. (Phytophthora infestans) | % eff. (Plasmopara viticola)
CON=Cc1ccccc1OCC1CC(c2csc(C3CCN(C(=O)Cn4nc(C(F)F)cc4C(F)F)CC3)n2)=NO1 (mixture of isomers) [I-60] | 3.39^[a]; 3.39^[b] | 94% | –
O=C(Cn1nc(C(F)F)cc1C(F)F)N1CCC(c2nc(C3=NOC(COc4ccccc4C=NO)C3)cs2)CC1 (mixture of isomers) [I-64] | 2.62 | 95% | 73%
O=C(Cn1nc(C(F)F)cc1C(F)F)N1CCC(c2nc(C3=NOC(COc4c(Cl)cccc4Cl)C3)cs2)CC1 (stereo not drawn) [I-1] | 3.7 | 100% | 100%
CC(C)(c1ccccc1)C1CC(c2csc(C3CCN(C(=O)Cn4nc(C(F)F)cc4C(F)F)CC3)n2)=NO1 (stereo not drawn) [I-4] | 3.79^[a] | 100% | 97%
O=C(Cn1nc(C(F)F)cc1C(F)F)N1CCC(c2nc(C3=NOC(C(F)c4ccccc4)C3)cs2)CC1 (stereo not drawn) [I-5] | 3.23^[a] | 100% | 100%
O=C(CCC1CC(c2csc(C3CCN(C(=O)Cn4nc(C(F)F)cc4C(F)F)CC3)n2)=NO1)c1ccccc1 (stereo not drawn) [I-6] | 3.16 | 100% | 96%
O=C(Cn1nc(C(F)F)cc1C(F)F)N1CCC(c2nc(C3=NOC(CS(=O)(=O)c4ccccc4)C3)cs2)CC1 (stereo not drawn) [I-7] | 2.65^[a]; 2.65^[b] | 100% | 96%
O=C(Cn1nc(C(F)F)cc1C(F)F)N1CCC(c2nc(C3=NOC(C(O)c4ccccc4)C3)cs2)CC1 (stereo not drawn) [I-8] | 2.53^[a] | 100% | 93%
O=C(Cn1nc(C(F)F)cc1C(F)F)N1CCC(c2nc(C3=NOC(CSc4ccccc4)C3)cs2)CC1 (stereo not drawn) [I-10] | 3.46 | 100% | 93%
CC(C)(c1ccccc1)C1CC(c2csc(C3(F)CCN(C(=O)Cn4nc(C(F)F)cc4C(F)F)CC3)n2)=NO1 (stereo not drawn) [I-11] | 4.03^[a] | 95% | –
CC(=O)c1ccccc1OCC1CC(c2csc(C3CCN(C(=O)Cn4nc(C(F)F)cc4C(F)F)CC3)n2)=NO1 (stereo not drawn) [I-12] | 2.93 | 100% | 70%
Cc1ccccc1OCC1CC(c2csc(C3CCN(C(=O)Cn4nc(C(F)F)cc4C(F)F)CC3)n2)=NO1 (stereo not drawn) [I-13] | 3.5 | 100% | –
CN(CC1CC(c2csc(C3CCN(C(=O)Cn4nc(C(F)F)cc4C(F)F)CC3)n2)=NO1)c1ccccc1 (stereo not drawn) [I-14] | 3.47 | 95% | –
O=C(Cn1nc(C(F)F)cc1C(F)F)N1CCC(c2nc(C3=NOC(C(F)c4c(F)cccc4F)C3)cs2)CC1 (stereo not drawn) [I-17] | 3.36^[a] | 95% | 100%
Fc1cccc(F)c1C(F)C1CC(c2csc(C3CCN(C(=S)Cn4nc(C(F)F)cc4C(F)F)CC3)n2)=NO1 (stereo not drawn) [I-18] | 3.81^[a] | 95% | 100%
Cc1cc(C(F)(F)F)nn1CC(=O)N1CCC(c2nc(C3=NOC(C(F)c4ccccc4)C3)cs2)CC1 (stereo not drawn) [I-19] | 3.3^[a] | 100% | 94%
Cc1cc(C(F)(F)F)nn1CC(=O)N1CCC(c2nc(C3=NOC(C(F)c4c(F)cccc4F)C3)cs2)CC1 (stereo not drawn) [I-20] | 3.48^[a] | 95% | 93%
Cc1ccc(C)c(NC(=S)N2CCC(c3nc(C4=NOC(C(F)(F)c5ccccc5)C4)cs3)CC2)c1 (stereo not drawn) [I-21] | 3.86^[a] | 95% | 85%
O=C(Cn1nc(C(F)F)cc1C(F)F)N1CCC(c2nc(C3=NOC(C(F)(F)c4c(F)cccc4F)C3)cs2)CC1 (stereo not drawn) [I-22] | 3.47^[a] | 95% | 100%
O=C(Cc1cc(Cl)ccc1Cl)N1CCC(c2nc(C3=NOC(COc4ccccc4)C3)cs2)CC1 (stereo not drawn) [I-23] | 3.89 | 95% | 89%

SMILES | Log P [a] [1] | % eff. (Phytophthora infestans) | % eff. (Plasmopara viticola)
O=C(Nc1cc(C(F)F)ccc1C(F)F)N1CCC(c2nc(C3=NOC(C(F)c4ccccc4)C3)cs2)CC1 (stereo not drawn) [I-24] | 3.41^[a] | 100% | 94%
Cc1cc(C(F)(F)F)nn1CC(=O)N1CCC(c2nc(C3=NOC(C(F)(F)c4ccccc4)C3)cs2)CC1 (stereo not drawn) [I-25] | 3.55^[a] | 100% | 94%
COc1ccccc1OCC1CC(c2csc(C3CCN(C(=O)Cn4nc(C(F)F)cc4C(F)F)CC3)n2)=NO1 (stereo not drawn) [I-26] | 3.01 | 100% | 96%
Cc1ccc(C)c(NC(=S)N2CCC(c3nc(C4=NOC(C(F)(F)c5c(F)cccc5F)C4)cs3)CC2)c1 (stereo not drawn) [I-27] | 3.81^[a] | 90% | 92%
Cc1cc(C(F)(F)F)nn1CC(=O)N1CCC(c2nc(C3=NOC(C(F)(F)c4c(F)cccc4F)C3)cs2)CC1 (stereo not drawn) [I-28] | 3.51^[a] | 100% | 98%
Cc1ccc(C)c(CC(=O)N2CCC(c3nc(C4=NOC(COc5ccccc5)C4)cs3)CC2)c1 (stereo not drawn) [I-29] | 3.71 | 100% | 78%
O=C(Nc1cc(C(F)F)ccc1C(F)F)N1CCC(c2nc(C3=NOC(C(F)c4c(F)cccc4F)C3)cs2)CC1 (stereo not drawn) [I-30] | 3.60^[a] | 95% | 100%
Cc1ccc(C)c(NC(=S)N2CCC(c3nc(C4=NOC(C(F)c5c(F)cccc5F)C4)cs3)CC2)c1 (stereo not drawn) [I-32] | 3.80^[a] | 94% | 78%
Cc1ccc(Cl)cc1NC(=O)N1CCC(c2nc(C3=NOC(COc4ccccc4)C3)cs2)CC1 (stereo not drawn) [I-33] | 3.54 | 100% | –
FC(F)c1cc(C(F)F)n(CC(=S)N2CCC(c3nc(C4=NOC(COc5ccccc5)C4)cs3)CC2)n1 (stereo not drawn) [I-34] | 3.73 | 100% | 96%
O=C(Nc1cc(C(F)F)ccc1C(F)F)N1CCC(c2nc(C3=NOC(C(F)(F)c4c(F)cccc4F)C3)cs2)CC1 (stereo not drawn) [I-35] | 3.61^[a] | 95% | 100%
Cc1cc(C(F)(F)F)nn1CC(=O)N1CCC(c2nc(C3=NOC(COc4ccccc4)C3)cs2)CC1 (stereo not drawn) [I-37] | 3.27 | 100% | 97%
COc1ccc(C)cc1NC(=O)N1CCC(c2nc(C3=NOC(COc4ccccc4)C3)cs2)CC1 (stereo not drawn) [I-38] | 3.59 | 100% | –
Cc1ccc(C)c(NC(=S)N2CCC(c3nc(C4=NOC(C(F)c5ccccc5)C4)cs3)CC2)c1 (stereo not drawn) [I-39] | 3.61^[a] | 100% | 78%
Cc1cc(C(F)F)nn1CC(=O)N1CCC(c2nc(C3=NOC(COc4c(F)cccc4F)C3)cs2)CC1 (stereo not drawn) [I-48] | 3.01 | – | 96%
O=C(Cn1nc(C(F)F)cc1C(F)F)N1CCC(c2nc(C3=NOC(C(O)(c4ccccc4)C(F)(F)F)C3)cs2)CC1 (stereo not drawn) [I-49] | 3.2 | 97% | –
CC(C)(c1c(F)cccc1Cl)C1CC(c2csc(C3CCN(C(=O)Nc4cc(C(F)F)ccc4C(F)F)CC3)n2)=NO1 (stereo not drawn) [I-53] | 4.53 | 91% | –
Cc1ccccc1SCC1CC(c2csc(C3CCN(C(=O)Cn4nc(C(F)F)cc4C(F)F)CC3)n2)=NO1 (stereo not drawn) [I-70] | 3.78 | 95% | –
O=Cc1ccccc1OCC1CC(c2csc(C3CCN(C(=O)Cn4nc(C(F)F)cc4C(F)F)CC3)n2)=NO1 (stereo not drawn) [I-73] | 2.83^[a]; 2.83^[b] | 90% | –
O=C(Cn1nc(C(F)F)cc1C(F)F)N1CCC(c2nc(C3=NOC(COc4c(F)cccc4Br)C3)cs2)CC1 (stereo not drawn) [I-75] | 3.67 | – | 98%
